# Publication PMC11926880, “Procognitive Potential of Neuroprotective Triazine 5-HT6 Receptor Antagonists Tested on Chronic Activity In Vivo in Rats: Computer-Aided Insight into the Role of Chalcogen-Differences on the Pharmacological Profile” (ACS Chemical Neuroscience, 2025)
# Read-outs that look alike come from different tables or passages of the source.
# Tests used:
# [1] = tissue distribution pharmacokinetics after single i.p. administration; format: in vivo, rat; details: male, Wistar, rat, ip; for Cmax: read-out: Cmax; for Tmax: read-out: Tmax (converted)
# Description: Standard laboratory food (LSM-B) and filtered water as well as environment enrichment were freely available. Animals were randomly divided into treatment groups using a computer-based random order generator. All of the experiments were performed by two observers unaware of the treatment applied between 9:00 and 14:00 on separate groups of animals. Rats were injected with the investigated compounds once (in pharmacokinetic studies) and for 21 days (in behavioral studies), and afterward, behavioral tests were conducted and tissue collection was done, as required. For pharmacokinetic studies, animals were fasted prior to dosing by withholding food but not water overnight. After dosing, the food was withheld for an additional 8 h. All animals were used only once. Animals were handled every day and weighed every other day in the chronic part of the experiment. Procedures involving animals and their care were conducted in accordance with current European Community and Polish legislations on animal experimentation. Additionally, all efforts were made to minimize animals' suffering and to use only the number of animals necessary to produce reliable scientific data. The experimental protocols and procedures described were approved by the I Local Ethics Commission in Cracow (nos 309/2019 and 765/2023) and complied with the European Communities Council Directive of 24 November 24, 1986 (86/609/EEC) and were in accordance with the 1996 NIH Guide for the Care and Use of Laboratory Animals. The research program complies with the commonly accepted '3Rs' (replacement and reduction of animals, refinement of experimental conditions, and procedures to minimize the harm to animals). […] Moreover, five tissues (i.e., brain, heart, lungs, kidneys, and liver) were harvested and rinsed with cold saline. Blood was allowed to clot at room temperature for 15-20 min and then centrifuged (3000 rpm for 10 min). The obtained serum and tissues were stored at -80 °C until analysis. […] HPLC analysis with UV detection at 221 nm was performed at a 1 mL/min flow rate, and the column temperature was 38 °C. Before analysis, tissue samples were thawed, weighed (200-250 mg), and placed in 5 mL plastic tubes with four volumes (w/v) of PBS (pH 7.4) and homogenized individually using a […]-1 homogenizer (ART Prozess & Labortechnik GmbH & Co., Germany). […] The samples were alkalized with 50 μL of 4 M sodium hydroxide solution, vortex-mixed, and extracted with 1 mL of ethyl acetate/hexane (30/70, v/v) mixture on a shaker (VXR Vibrax, IKA, Germany) for 20 min. […] Then, the samples were shaken and centrifuged again. Finally, 60-90 μL of each acidic layer was injected into the HPLC system. […] The interday and intraday precision and accuracy of quality control samples evaluated in the serum and tissue homogenates were within 15%. […] The area under the serum concentration-time curve from time zero to time t (AUC0-t), where t is the time of the last measurable sample, was calculated according to the linear trapezoidal rule. The AUC from time zero to infinity (AUC0-∞) was estimated as AUC0-t + Ct/λz, where Ct was the serum concentration of the last measurable sample. The clearance (CL/F) was calculated as D/AUC0-∞, and the volume of distribution based on the terminal phase (Vz/F) was estimated as D/(λz·AUC0-∞), where F is the bioavailability of intraperitoneal administration. The MRT is calculated to be […], where AMUC0-∞ is the area under the first moment curve from the time of dosing to infinity. The peak serum concentration (Cmax) and the time to reach Cmax (Tmax) were read directly from the observations. […] Data were presented as mean ± SD.
# 5-HT7R = details: read-out: radioligand binding assay Ki; cloned receptors; cited from earlier work
# NRF2 = assay: Western blot for NRF2 (total and nuclear extracts); format: cell-based, human; details: 10 μM, 24 h
# [2] = kidneys, 0.3 mg/kg, kidneys, 0.3 mg/kg i.p.
# [3] = kidneys, 1 mg/kg, kidneys, 1.0 mg/kg i.p.
# [4] = liver, 0.3 mg/kg, liver, 0.3 mg/kg i.p.
# [5] = liver, 1 mg/kg, liver, 1.0 mg/kg i.p.
# [6] = lungs, 0.3 mg/kg, lungs, 0.3 mg/kg i.p.
# [7] = lungs, 1 mg/kg, lungs, 1.0 mg/kg i.p.
smiles,measurement,setting,value
"CN1CCN(c2nc(N)nc(C(C)(C)Sc3ccc4ccccc4c3)n2)CC1 [WA-22, 4-(4-methylpiperazin-1-yl)-6-(2-(naphthalen-2-ylthio)propan-2-yl)-1,3,5-triazin-2-amine]",Kp,"[1]; heart/serum, 1 mg/kg, heart, 1.0 mg/kg i.p., read-out: AUC ratio (tissue-to-serum AUC0–t)",2.63 ± 1.69
same,Kp,"[1]; heart/serum, 1 mg/kg, heart-to-serum, 1 mg/kg i.p., read-out: AUC0–∞ (ng·h/g)/AUC0–∞ (ng·h/mL)",2.09 ± 2.71
same,Kp,"[1]; heart/serum, 1 mg/kg, heart-to-serum, 1 mg/kg i.p., read-out: Cmax (ng/g)/Cmax (ng/mL)",2.61 ± 1.09
same,MRT,"[1]; brain, 0.3 mg/kg i.p.",64.4 min
same,MRT,"[1]; brain, 1.0 mg/kg i.p.",90.6 min
same,MRT,"[1]; heart, 0.3 mg/kg i.p.",104 min
same,MRT,"[1]; heart, 1.0 mg/kg i.p.",109 min
same,MRT,"[1]; kidneys, 0.3 mg/kg i.p.",85.3 min
same,MRT,"[1]; kidneys, 1.0 mg/kg i.p.",107 min
same,MRT,"[1]; liver, 0.3 mg/kg i.p.",40.6 min
same,MRT,"[1]; liver, 1.0 mg/kg i.p.",51.3 min
same,MRT,"[1]; lungs, 0.3 mg/kg i.p.",130 min
same,MRT,"[1]; lungs, 1.0 mg/kg i.p.",72.6 min
same,Cmax,[1]; [2],72.3 ± 27.1 ng/g
same,Tmax,[1]; [2],5 min
same,Cmax,[1]; [3],247 ± 119 ng/g
same,Tmax,[1]; [3],5 min
same,Kp,"[1]; kidneys/serum, 0.3 mg/kg, kidneys, 0.3 mg/kg i.p., read-out: AUC ratio (tissue-to-serum AUC0–t)",3.93 ± 1.88
same,Kp,"[1]; kidneys/serum, 1 mg/kg, kidneys, 1.0 mg/kg i.p., read-out: AUC ratio (tissue-to-serum AUC0–t)",5.47 ± 3.33
same,Kp,"[1]; kidneys/serum, 1 mg/kg, kidneys-to-serum, 1 mg/kg i.p., read-out: AUC0–∞ (ng·h/g)/AUC0–∞ (ng·h/mL)",4.96 ± 3.2
same,Kp,"[1]; kidneys/serum, 1 mg/kg, kidneys-to-serum, 1 mg/kg i.p., read-out: Cmax (ng/g)/Cmax (ng/mL)",3.41 ± 0.59
same,Kp,"[1]; liver (relative to serum), 1 mg/kg, liver, 1.0 mg/kg i.p., read-out: AUC ratio (tissue-to-serum AUC0–t)",6.32 ± 4.96
same,Cmax,[1]; [4],149 ± 34.8 ng/g
same,Tmax,[1]; [4],5 min
same,Cmax,[1]; [5],404 ± 101 ng/g
same,Tmax,[1]; [5],5 min
same,Kp,"[1]; liver/serum, 0.3 mg/kg, liver, 0.3 mg/kg i.p., read-out: AUC ratio (tissue-to-serum AUC0–t)",4.75 ± 1.57
same,Kp,"[1]; liver/serum, 1 mg/kg, liver-to-serum, 1 mg/kg i.p., read-out: AUC0–∞ (ng·h/g)/AUC0–∞ (ng·h/mL)",5.11 ± 3.85
same,Kp,"[1]; liver/serum, 1 mg/kg, liver-to-serum, 1 mg/kg i.p., read-out: Cmax (ng/g)/Cmax (ng/mL)",6.3 ± 2.69
same,Kp,"[1]; lungs (relative to serum), 1 mg/kg, lungs, 1.0 mg/kg i.p., read-out: AUC ratio (tissue-to-serum AUC0–t)",14.1 ± 5.62
same,Cmax,[1]; [6],214 ± 45.7 ng/g
same,Tmax,[1]; [6],5 min
same,Cmax,[1]; [7],744 ± 88.9 ng/g
same,Tmax,[1]; [7],5 min
same,Kp,"[1]; lungs/serum, 0.3 mg/kg, lungs, 0.3 mg/kg i.p., read-out: AUC ratio (tissue-to-serum AUC0–t)",11.1 ± 2.57
same,Kp,"[1]; lungs/serum, 1 mg/kg, lungs-to-serum, 1 mg/kg i.p., read-out: AUC0–∞ (ng·h/g)/AUC0–∞ (ng·h/mL)",13.9 ± 7.95
same,Kp,"[1]; lungs/serum, 1 mg/kg, lungs-to-serum, 1 mg/kg i.p., read-out: Cmax (ng/g)/Cmax (ng/mL)",15 ± 7.31
same,Ki,5-HT7R,607 nM
same,NRF2 protein amount (total extract),NRF2; GAPDH loading control,protein amount was not modulated
same,NRF2 translocation from cytoplasm to nucleus,"NRF2; nuclear extracts, H3 loading control",effectively induce a shuffling of this protein inside the nucleus
